Entries after “also recorded” stand apart in the source; their conditions may differ. Square brackets hold non-standard residues; d marks the D form. Peptide text beside a SMILES is read from it. * marks the point of attachment. Nle = CCCC[C@H](N)C(=O)O; Cbz = O=C(OCc1ccccc1)*
Legend:
OMP-B37 breast tumors = assay: OMP-B37 breast tumor xenograft, tumor growth; type: in vivo, NOD/SCID mice
Experimental: Dissociated lineage depleted OMP-B37 p4 tumor cells were re-suspended in injection media (PBS and 0.5× matrigel) and injected subcutaneously into the right flank of 6-7 week old female NOD/SCID mice (27,000 cells/mouse). Mice were monitored weekly and tumors were allowed to grow until they were approximately 80 mm^3 (49 days after injection). Mice were randomized into two treatment groups (n=11 mice/group) and were dosed once a week with 15 mg/kg control antibody, or 20 mg/kg 59R5, an anti-NOTCH2/3 antibody (FIG. 5). Tumor growth was monitored by caliper measurement once a week.
(§1) Activity of anti-NOTCH2/3 in combination with Taxol in OMP-B37 breast tumor. The anti-NOTCH2/3 antibody 59R5, taxol, or a combination of 59R5 and taxol were administered to OMP-B37 xenograft mice. Initially, B37 p2 tumor cells were injected subcutaneously into the right flank of 6-7 week old female NOD/SCID mice. Mice were monitored weekly and tumors were allowed to grow until they were approximately 80 mm^3 Mice were then administered a control antibody, the 59R5 anti-NOTCH2/3 antibody, taxol or a combination of 59R5 anti-NOTCH2/3 antibody and taxol (FIG. 6). Tumor growth was monitored by caliper measurement once a week.

E-cadherin = E-cadherin expression in treated OMP-B37 tumors; type: in vivo, NOD/SCID mice; conditions: OMP-B37 xenograft; FIG. 6B
Experimental: as §1

OMP-C31 colon tumor = OMP-C31 colon tumor model, tumor growth; type: in vivo, Nod-Scid mice; conditions: 10 mg/kg IP weekly, p=0.0005; FIG. 15
Experimental: In order to test the effect of the 59R5 anti-NOTCH2/3 antibody on a tumor which harbors an activating mutation in NOTCH3, the OMP-C31 colon tumor model was utilized. 5,000 OMP-C31 colon tumor cells were injected sub-cutaneously in Nod-Scid mice. Dosing was initiated two days after tumor cell injection. Tumor bearing mice (n=10 group) were treated with either control antibody (1B7.11) or 59R5 anti-NOTCH2/3 antibody. Antibodies were dosed by IP injection at 10 mg/kg, weekly, for the duration of the experiment. Tumor volumes were measured on the indicated days. The data is plotted as the mean+SEM (FIG. 15).

NOTCH3.ICD = assay: NOTCH3 ICD IHC of treated OMP-B37 breast tumors; type: in vivo, mice; conditions: OMP-B37 xenograft; FIG. 17; listed as OMP-59R5
Experimental: NOTCH3.ICD accumulation in OMP-B37 tumor cells comprising a NOTCH3 activating mutation following treatment with a NOTCH2/3 antagonist and/or chemotherapy was examined by IHC. Tumor samples were isolated from the OMP-B37 xenograft mice that were treated with OMP-59R5 anti-NOTCH2/3 antibody, taxol or a combination of OMP-59R5 and taxol as described in the second paragraph of Example 3 above. A NOTCH3 ICD (“N3.ICD”) rabbit monoclonal antibody was developed that binds to the cleavage site of NOTCH3 and detects activated NOTCH3 within the nucleus. NOTCH3 ICD IHC was performed on the tumor samples using the N3.ICD antibody and standard IHC protocols with antigen retrieval in Target Retrieval Solution pH 9 (DAKO), antibody incubation overnight at 4° C. and detection with peroxidase-based EnVision™+ polymer (DAKO) and DAB+ (DAKO). Statistical significance was determined by One Way ANOVA with Bonferroni adjustment.

medulloblastoma = conditions: cited from earlier work
T-ALL = conditions: O'Neil et al. 2006; cited from earlier work
[1] = test system: Ras-transformed fibroblasts; conditions: cited from earlier work
OMP-B40 breast tumors = assay: OMP-B40 breast tumor xenograft, tumor growth; type: in vivo, NOD/SCID mice; conditions: antibodies 15 mg/kg i.p. twice a week, Taxol 20 mg/kg i.p. once a week; FIG. 3B
Experimental: B40 p3 tumor cells were injected subcutaneously into the left flank of 6-7 week old female NOD/SCID mice (300,000 cells/mouse). Mice were monitored weekly and tumors were allowed to grow until they were approximately 140 mm^3 (78 days after injection). Mice were randomized into five treatment groups and treated with control antibody, or different doses (0.3 mg/kg, 1 mg/kg, 3 mg/kg, 10 mg/kg) of the OMP-52M51 humanized anti-NOTCH1 antibody. The antibodies were dosed i.p. twice a week. Tumor growth was monitored by caliper measurement once a week.
Dissociated OMP-B40 p3 tumor cells were re-suspended in injection media (PBS containing 100 ng/mL VEGF and 100 ng/mL bFGF and 0.5× matrigel) and injected subcutaneously into the left flank of 6-7 week old female NOD/SCID mice (300,000 cells/mouse). Mice were monitored weekly and tumors were allowed to grow until they were approximately 140 mm^3 (78 days after injection). Mice were randomized into four treatment groups (n=10 mice/group) and treated with control antibody, anti-NOTCH1 antibody OMP-52M51, taxol or a combination of OMP-52M51 with taxol. The antibodies were dosed i.p. twice a week at 15 mg/kg and Taxol was dosed i.p. once a week at 20 mg/kg. Tumor growth was monitored by caliper measurement once a week.
As described in Example 2, three hundred thousand OMP-B40 tumor cells were injected subcutaneously and allowed to grow to a mean volume of […] At that point, 78 days after study start, mice were randomized and treatment started. Mice received either 15 mg/kg control antibody or 15 mg/kg OMP-52M51 humanized antibody twice weekly, with or without 20 mg/kg paclitaxel once weekly, all administered by IP injection. Mean±SEM, n=10 animals per group.

[2] = test system: melanoma and Kaposi sarcoma; conditions: Curry et al. 2005; cited from earlier work

For “59R5: anti-NOTCH2/3 antibody, ATCC PTA-10170; heavy chain variable region SEQ ID NO:30, light chain variable region SEQ ID NO:32”, the tumor volume reduction (OMP-B37 breast tumors; 20 mg/kg once a week, after 5 weeks of treatment, FIG. 5) was 56.6%, the “tumor volume in xenografted animals (in words)” value (OMP-B37 breast tumors; 59R5, taxol or combination study, FIG. 6A) was “greatly decreased tumor volume” and the “tumor volume compared to control antibody (in words)” value (OMP-B37 breast tumors; FIG. 5) was “greatly decreased tumor volume”. For the same molecule, the “expression of E-cadherin” value (E-cadherin) was “increases expression of E-cadherin”, the “tumor growth relative to control antibody treated group” value (OMP-C31 colon tumor) was “inhibited OMP-C31 tumor growth” and the “NOTCH3.ICD accumulation relative to PBS treated cells” value (NOTCH3.ICD) was “significantly inhibited NOTCH3.ICD accumulation; also recorded: blocks NOTCH3.ICD accumulation”.
For `C[C@H](NC(=O)Cc1cc(F)cc(F)c1)C(=O)N[C@H](C(=O)OC(C)(C)C)c1ccccc1` [DAPT, N—[N-(3,5-difluorophenacetyl)-L-alanyl]-S-phenylglycine t-butyl ester], the medulloblastoma growth (medulloblastoma) is given as “marked reduction in medulloblastoma growth” and the “cell cycle arrest and apoptosis” value (T-ALL) is given as “induced G0-G1 cell cycle arrest and apoptosis”.
In the case of `CCC(C)C(NC(=O)OCc1ccccc1)C(=O)NC(C=O)CC(C)C` (stereo not drawn) [IL-X, cbz-IL-CHO] (Cbz-Ile-Leu-aldehyde; configuration not given here), the antineoplastic activity [1] is listed as “NOTCH1-dependent antineoplastic activity”.
With `CC(=O)O[C@H]1C(=O)[C@@]2(C)[C@H]([C@H](OC(=O)c3ccccc3)[C@]3(O)C[C@H](OC(=O)[C@H](O)[C@@H](NC(=O)c4ccccc4)c4ccccc4)C(C)=C1C3(C)C)[C@]1(OC(C)=O)CO[C@@H]1C[C@@H]2O` [Taxol, paclitaxel, reference compound] the “reduction in tumor volume versus control” value (OMP-B40 breast tumors) was 57.3%.
For `CCCC[C@@H](C=O)NC(=O)[C@H](CC(C)C)NC(=O)[C@H](CC(C)C)NC(=O)OCc1ccccc1` [z-Leu-leu-Nle-CHO] (Cbz-Leu-Leu-[Nle]-aldehyde), the tumor growth [2] is listed as “suppress tumor growth”.
